# Reference: patent US20160045505A1, “COMPOUNDS AND COMPOSITIONS FOR THE TREATMENT OF PARASITIC DISEASES” (NOVARTIS AG, priority 2013, published 2016)
# Like-named read-outs stand apart in the source and are kept apart here.
# Columns and labels:
# [1] = test system: Leishmania donovani axenic amastigote parasites; experiment: Leishmania donovani axenic amastigote proliferation assay (Cell TiterGlo luminescence, 2 day incubation); format: cell-based; settings: Leishmania donovani
# [2] = test system: L. donovani HU3 strain in mouse peritoneal macrophages; experiment: Assay for proliferation of Leishmania parasites in infected mouse peritoneal macrophages (SybrGreen staining, high-content imaging, 5 days); format: cell-based, Leishmania donovani; settings: Leishmania donovani, Peritoneal macrophage
# [3] = test system: Trypanosoma brucei Lister 427 strain, bloodstream form; experiment: Assay for proliferation of kinetoplastid parasite Trypanosoma brucei (Cell Titer Glo, 48 hours); format: cell-based; settings: Trypanosoma brucei, T. brucei Lister 427 bloodstream form, read-out: T. brucei EC50
# Description: Assay for Proliferation of Kinetoplastid Parasite Trypanosoma brucei.
# The proliferation is quantified by the addition of Cell Titer Glo (Promega®) a luminescent cell viability assay that measures the number of viable cells in culture based on the quantification of cellular ATP amount, which is an indicator of metabolically active cells.
# The following assay illustrates the invention without in any way limiting the scope of the invention. This parasite proliferation assay measures the increase in parasite growth using an assay that measures ATP activity, Cell Titer Glo®.
# Trypanosoma brucei Lister 427 strain is grown in HMI-9 Trypanosome media for T. brucei bloodstream form. 30 μl of HMI-9 media is dispensed into 384 well assay plates. 200 nl of compounds of the invention (in DMSO), including anti-trypanosome controls (Pentamidine and suramin), are then transferred into the assay plates, as well as DMSO alone to serve as a negative control for inhibition. Then 25 μl of a suspension of T. brucei culture in HMI-9 media is dispensed into the assay plates. The final concentration of parasites in culture corresponds to 1.7% of 0.5 uM ATP activity with Cell Titer Glo® in HMI-9 media. The plates are placed in a 37° C. incubator for 48 hours in an atmospheric environment containing 5% CO2. 40 μl of Cell Titer Glo® is dispensed into the plates. The plates are then read for luminescence. The percentage inhibition of 50%, EC50, is calculated for each compound.
# [4] = test system: Trypanosoma cruzi amastigotes (Tulahuen strain expressing Lac-Z) cultured in 3T3 fibroblast cells; experiment: microbe, parasite or virus in culture; format: cell-based; settings: Trypanosoma cruzi, TULAHUEN, Fibroblast
# [5] = axenic amastigotes, inhibition of proliferation, read-out: L. donovani amastigotes EC50
# [6] = L. donovani in mouse peritoneal macrophages, inhibition of proliferation, read-out: L. donovani Macrophage EC50
# [7] = L. donovani axenic amastigotes, read-out: L. donovani amastigotes EC50
# [8] = L. donovani in mouse peritoneal macrophages, read-out: L. donovani Macrophage EC50
# [9] = T. cruzi amastigotes in 3T3 fibroblast cells, read-out: T cruzi EC50
# [10] = read-out: L. donovani amastigotes EC50 (μM)
# [11] = read-out: L. donovani Macrophage EC50 (μM)
smiles,measurement,setting,value
"CC(C)OC(=O)Nc1cnc2nc(-c3cc(NC(=O)N4CCC(F)(F)C4)ccc3Cl)cn2c1 [Compound 4, isopropyl (2-(2-chloro-5-(3,3-difluoropyrrolidine-1-carboxamido)phenyl)imidazo[1,2-a]pyrimidin-6-yl)carbamate]",EC50,[1]; [5],1.34 µM
same,EC50,[2]; [6],2.22 µM
same,EC50,[3]; inhibition of proliferation,2360 nM
CCN(C)C(=O)Nc1cccc(-c2cn3cc(NC(=O)OC(C)C)cnc3n2)c1 [Compound 6],EC50,[1]; [5],22.3 µM
same,EC50,[2]; [6],9.2 µM
same,EC50,[3]; inhibition of proliferation,664 nM
CCN(C)C(=O)Nc1ccc(F)c(-c2cn3cc(NC(=O)OC(C)C)cnc3n2)c1 [Compound 9],EC50,[1]; [5],2.48 µM
same,EC50,[2]; [6],1.32 µM
same,EC50,[3]; inhibition of proliferation,191 nM
CCOC(=O)Nc1cccc(-c2cn3cc(NC(=O)OC(C)C)cnc3n2)c1 [Compound 10],EC50,[1]; [5],2.98 µM
same,EC50,[2]; [6],2.36 µM
same,EC50,[3]; inhibition of proliferation,231 nM
CC(C)OC(=O)Nc1cnc2nc(-c3cccc(NC(=O)c4nccs4)c3)cn2c1 [Compound 11],EC50,[1]; [5],3.8 µM
same,EC50,[2]; [6],5 µM
same,EC50,[3]; inhibition of proliferation,659 nM
"CC(C)OC(=O)Nc1cnc2nc(-c3cc(NC(=O)c4ccco4)ccc3F)cn2c1 [Compound 12, isopropyl (2-(2-fluoro-5-(furan-2-carboxamido)phenyl)imidazo[1,2-a]pyrimidin-6-yl)carbamate]",EC50,[3]; inhibition of proliferation,65.6 nM
Cc1ccc(C(=O)Nc2cccc(-c3cn4cc(NC(=O)OC(C)C)cnc4n3)c2)o1 [Compound 13],EC50,[1]; [5],1.72 µM
same,EC50,[2]; [6],0.81 µM
same,EC50,[3]; inhibition of proliferation,181 nM
CCN(CC)C(=O)Nc1cccc(-c2cn3cc(NC(=O)OC(C)C)cnc3n2)c1 [Compound 16],EC50,[1]; [5],> 25 µM
same,EC50,[2]; [6],14 µM
same,EC50,[3]; inhibition of proliferation,1640 nM
CC(C)OC(=O)Nc1cnc2nc(-c3cccc(NC(=O)c4ccc(Cl)o4)c3)cn2c1 [Compound 18],EC50,[1]; [5],0.41 µM
same,EC50,[2]; [6],0.172 µM
same,EC50,[3]; inhibition of proliferation,56.8 nM
CC(C)OC(=O)Nc1ccc(F)c(-c2cn3cc(NC(=O)OC(C)C)cnc3n2)c1 [Compound 40],EC50,[3]; inhibition of proliferation,185 nM
Cc1cnc(C(=O)Nc2cccc(-c3cn4cc(NC(=O)OC(C)C)cnc4n3)c2)s1 [Compound 41],EC50,[3]; inhibition of proliferation,4400 nM
CC(C)OC(=O)Nc1cnc2nc(-c3cccc(NC(=O)C4CC4)c3)cn2c1 [Compound 42],EC50,[3]; inhibition of proliferation,1700 nM
Cc1nc(C)c(C(=O)Nc2ccc(F)c(-c3cn4cc(NC(=O)c5nccn5C)cnc4n3)c2)o1 [Compound 174],EC50,[3]; inhibition of proliferation,483 nM
"O=C(Nc1ccc(F)c(-c2cn3cc(Br)cnc3n2)c1)C1CCCC1 [Compound 196, N-(3-(6-bromoimidazo[1,2-a]pyrimidin-2-yl)-4-fluorophenyl)cyclopentanecarboxamide]",EC50,[1]; [5],6.52 µM
same,EC50,[3]; inhibition of proliferation,1860 nM
O=C(Nc1ccc(F)c(-c2cn3cc(Br)cnc3n2)c1)c1ccccc1 [Compound 197],EC50,[1]; [5],2.49 µM
same,EC50,[3]; inhibition of proliferation,491 nM
O=C(Nc1ccc(F)c(-c2cn3cc(Br)cnc3n2)c1)N1CCOCC1 [Compound 515],EC50,[1]; [7],7.37 µM
same,EC50,[3],13500 nM
CC(C)NNC(=O)Nc1cnc2nc(-c3cc(NC(=O)N4CCCC4)ccc3F)cn2c1 [Compound 522],EC50,[1]; [7],19.3 µM
same,EC50,[2]; [8],> 50 µM
same,EC50,[4]; [9],> 20 µM
"CC(=O)Nc1cnc2nc(-c3cc(NC(=O)c4oc(C)nc4C)ccc3F)cn2c1 [Compound 525, N-(3-(6-acetamidoimidazo[1,2-a]pyrimidin-2-yl)-4-fluorophenyl)-2,4-dimethyloxazole-5-carboxamide]",EC50,[1]; [10],5.35 µM
same,EC50,[2]; [11],21.1 µM
same,EC50,[4]; read-out: T cruzi EC50 (μM),> 20 µM
"O=CNc1ccc(F)c(-c2cn3cc(Br)cnc3n2)c1 [Compound 531, N-(3-(6-bromoimidazo[1,2-a]pyrimidin-2-yl)-4-fluorophenyl)formamide]",EC50,[1]; [7],> 25 µM
same,EC50,[3],> 50000 nM
"O=CNc1cnc2nc(-c3cc(NC(=O)N4CCCC4)ccc3F)cn2c1 [Compound 533, N-(4-fluoro-3-(6-formamidoimidazo[1,2-a]pyrimidin-2-yl)phenyl)pyrrolidine-1-carboxamide]",EC50,[3],1540 nM
"O=C(Nc1ccc(F)c(-c2cn3cc(-n4cn[nH]c4=O)cnc3n2)c1)N1CCCC1 [Compound 534, N-(4-fluoro-3-(6-(5-oxo-1H-1,2,4-triazol-4(5H)-yl)imidazo[1,2-a]pyrimidin-2-yl)phenyl)pyrrolidine-1-carboxamide]",EC50,[1]; [7],> 23.7 µM
same,EC50,[2]; [8],> 50 µM
same,EC50,[4]; [9],> 20 µM
"COc1cnc2nc(-c3cc(NC(=O)N4CCCC4)ccc3F)cn2c1 [Compound 536, N-(4-fluoro-3-(6-methoxyimidazo[1,2-a]pyrimidin-2-yl)phenyl)pyrrolidine-1-carboxamide]",EC50,[1]; [7],0.348 µM
same,EC50,[2]; [8],2 µM
same,EC50,[4]; [9],0.153 µM
Cc1nc(C)c(C(=O)N(C)c2ccc(F)c(-c3cn4cc(NC(C)C)cnc4n3)c2)o1 [Compound 557],EC50,[1]; [7],> 25 µM
same,EC50,[2]; [8],> 50 µM
same,EC50,[4]; [9],> 20 µM
Cc1nc(C)c(C(=O)Nc2ccc(F)c(-c3cn4cc(N5CCC5)cnc4n3)c2)o1 [Compound 559],EC50,[1]; [7],> 25 µM
same,EC50,[2]; [8],> 50 µM
same,EC50,[4]; [9],> 20 µM
"O=C(Nc1ccc(F)c(-c2cn3cc(OCC4CC4)cnc3n2)c1)N1CCCC1 [Compound 562, N-(3-(6-(cyclopropylmethoxy)imidazo[1,2-a]pyrimidin-2-yl)-4-fluorophenyl)pyrrolidine-1-carboxamide]",EC50,[1]; [7],0.16 µM
same,EC50,[2]; [8],0.245 µM
same,EC50,[4]; [9],0.046 µM
"Cc1nc(C)c(C(=O)Nc2ccc(F)c(-c3cn4cc(N5CCN(C)CC5)cnc4n3)c2)o1 [Compound 565, N-(4-fluoro-3-(6-(4-methylpiperazin-1-yl)imidazo[1,2-a]pyrimidin-2-yl)phenyl)-2,4-dimethyloxazole-5-carboxamide]",EC50,[1]; [10],12.3 µM
same,EC50,[2]; [11],6.27 µM
same,EC50,[4]; read-out: T cruzi EC50 (μM),11.2 µM
"Nc1cnc2nc(-c3ccc(F)c(NC(=O)N4CCCC4)c3)cn2c1 [Compound 568, N-(5-(6-aminoimidazo[1,2-a]pyrimidin-2-yl)-2-fluorophenyl)pyrrolidine-1-carboxamide]",EC50,[3],9840 nM
CC(=O)Nc1ccc(F)c(-c2cn3cc(N)cnc3n2)c1 [Compound 569],EC50,[1]; [7],> 25 µM
same,EC50,[3],> 50000 nM
Cc1nc(C)c(C(=O)Nc2ccc(F)c(-c3cn4cc(-c5cccc(N6CCNCC6)n5)cnc4n3)c2)o1 [Compound 572],EC50,[1]; [7],1.94 µM
same,EC50,[2]; [8],2.36 µM
same,EC50,[4]; [9],0.394 µM
"O=C(Nc1ccc(F)c(-c2cn3cc(-c4ccccc4)cnc3n2)c1)c1ccc(F)o1 [Compound 576, 5-fluoro-N-(4-fluoro-3-(6-phenylimidazo[1,2-a]pyrimidin-2-yl)phenyl)furan-2-carboxamide]",EC50,[1]; [7],0.526 µM
same,EC50,[2]; [8],0.807 µM
same,EC50,[4]; [9],0.05 µM
Nc1cnc2nc(-c3cccc(NC(=O)N4CCCC4)c3F)cn2c1 [Compound 580],EC50,[1]; [7],> 25 µM
same,EC50,[3],> 50000 nM
"Cc1nc(C)c(C(=O)Nc2ccc(F)c(-c3cn4cc(-c5ccc(CCO)cn5)cnc4n3)c2)o1 [Compound 585, N-(4-fluoro-3-(6-(5-(2-hydroxyethyl)pyridin-2-yl)imidazo[1,2-a]pyrimidin-2-yl)phenyl)-2,4-dimethyloxazole-5-carboxamide]",EC50,[3],414 nM
"CC1(c2nc(Nc3ccc(F)c(-c4cn5cc(C6CC6)cnc5n4)c3)no2)COC1 [Compound 595, N-(3-(6-cyclopropylimidazo[1,2-a]pyrimidin-2-yl)-4-fluorophenyl)-5-(3-methyloxetan-3-yl)-1,2,4-oxadiazol-3-amine]",EC50,[1]; [7],> 25 µM
same,EC50,[2]; [8],> 50 µM
same,EC50,[4]; [9],9.17 µM
CC(C)(CO)c1nc(Nc2ccc(F)c(-c3cn4cc(C5CC5)cnc4n3)c2)no1 [Compound 596],EC50,[1]; [7],> 21.2 µM
same,EC50,[2]; [8],0.075 µM
same,EC50,[4]; [9],3.74 µM
